Laboratory results published in US8350027B2, “Dual-acting pyrazole antihypertensive agents” (Theravance, Inc., priority 2009, dated 2013).

Columns and labels:
human AT1 receptor = target: T1, human AT1 receptor (Homo sapiens, UniProt P30556); assay: AT1 radioligand binding assay (displacement of [Eu]AngII); details: membranes of CHO-K1 cells expressing cloned human AT1 receptor; values given as lower bounds; read-out: AT1 pKi (converted)
T1 construct: expressed in transfected cells; host or cells: CHO-K1
T1 sequence (P30556 1-359): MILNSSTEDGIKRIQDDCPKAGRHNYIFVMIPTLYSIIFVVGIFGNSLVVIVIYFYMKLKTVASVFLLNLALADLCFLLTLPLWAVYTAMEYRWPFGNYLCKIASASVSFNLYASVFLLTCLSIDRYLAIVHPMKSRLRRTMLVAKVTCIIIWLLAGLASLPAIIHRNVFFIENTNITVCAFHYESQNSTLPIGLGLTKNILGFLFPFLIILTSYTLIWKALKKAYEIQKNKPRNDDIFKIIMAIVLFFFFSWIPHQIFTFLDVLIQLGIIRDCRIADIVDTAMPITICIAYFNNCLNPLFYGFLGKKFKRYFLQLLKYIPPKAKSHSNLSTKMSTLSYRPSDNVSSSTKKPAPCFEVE
Method in brief: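 Membranes from CHO-K1 cells stably expressing cloned human AT1, 0.2 μg protein, in 50 mM Tris/HCl pH 7.5, 5 mM MgCl2, 0.025% BSA. Compounds displaced [Eu]AngII over 120 min in the dark at room temperature or 37° C; filter-bound TRF read. Nonspecific binding with 10 μM angiotensin II; IC50 converted to Ki via Cheng-Prusoff, reported as pKi.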

NEP enzyme = target: T2, NEP enzyme (Homo sapiens, UniProt P08473); assay: NEP enzyme inhibition assay (fluorogenic peptide substrate); format: biochemical; details: values given as lower bounds; * = prodrugs, may not exhibit NEP activity in an in vitro assay; read-out: NEP pIC50 (converted)
T2 construct: purchased R&D Systems, Minneapolis, Minn; 1182-ZN
Method in brief: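 Recombinant human NEP was run with Mca-BK2 (10 μM) at room temperature in Tris buffer with 1 μM Zn. Compounds (10 μM–20 pM, 12 points) were pre-equilibrated 10 min, then reacted 20 min and acid-stopped. Fluorescence ex 320/em 405 nm, one-site competition fit gives pIC50. Thiol compounds may be pre-treated with 400 μM TCEP.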

T2 sequence (P08473 52-750 limits assumed): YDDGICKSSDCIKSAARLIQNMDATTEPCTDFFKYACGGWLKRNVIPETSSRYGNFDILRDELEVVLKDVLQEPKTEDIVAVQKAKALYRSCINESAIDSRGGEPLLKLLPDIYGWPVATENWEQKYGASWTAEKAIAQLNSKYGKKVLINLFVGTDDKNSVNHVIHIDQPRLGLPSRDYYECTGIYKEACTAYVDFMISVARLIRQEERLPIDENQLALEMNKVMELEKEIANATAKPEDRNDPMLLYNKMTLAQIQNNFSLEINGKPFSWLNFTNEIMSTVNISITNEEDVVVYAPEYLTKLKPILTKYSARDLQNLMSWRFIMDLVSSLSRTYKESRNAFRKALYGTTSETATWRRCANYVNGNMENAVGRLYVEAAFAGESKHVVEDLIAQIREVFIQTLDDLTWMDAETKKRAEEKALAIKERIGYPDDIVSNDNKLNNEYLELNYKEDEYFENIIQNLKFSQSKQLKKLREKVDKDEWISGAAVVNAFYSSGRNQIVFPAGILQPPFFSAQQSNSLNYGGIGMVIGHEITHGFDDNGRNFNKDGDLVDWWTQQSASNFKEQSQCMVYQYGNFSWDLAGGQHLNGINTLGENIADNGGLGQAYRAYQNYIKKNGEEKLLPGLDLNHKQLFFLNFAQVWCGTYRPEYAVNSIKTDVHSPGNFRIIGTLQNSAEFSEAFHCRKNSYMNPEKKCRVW

Compound	Ki (human AT1 receptor)	IC50 (NEP enzyme)
CCCc1cc(C(=O)N[C@@H](CS)Cc2ccccc2)nn1Cc1ccc(-c2ccccc2-c2nnn[nH]2)nc1 [Example 14-2, 5-Propyl-1-{6-[2-(1H-tetrazol-5-yl)phenyl]pyridin-3-ylmethyl}-1H-pyrazole-3-carboxylic acid ((R)-1-benzyl-2-mercaptoethyl)amide]	≤ 10 nM	≤ 100 nM
CCCc1cc(C(=O)N[C@@H](CS)Cc2ccccc2)nn1Cc1ccc(-c2ccccc2S(=O)(=O)NC(C)=O)nc1 [Example 14-3, 1-[6-(2-Acetylsulfamoyl-phenyl)pyridin-3-ylmethyl]-5-propyl-1H-pyrazole-3-carboxylic acid ((R)-1-benzyl-2-mercaptoethyl)amide]	≤ 100 nM	≤ 100 nM
CCCc1cc(C(=O)N[C@@H](CC(=O)O)Cc2ccccc2Br)nn1Cc1ccc(-c2ccccc2-c2nnn[nH]2)nc1 [Example 14-4, (R)-4-(2-Bromophenyl)-3-[(5-propyl-1-{6-[2-(1H-tetrazol-5-yl)-phenyl]-pyridin-3-ylmethyl}-1H-pyrazole-3-carbonyl)amino]butyric acid]	≤ 10 nM	≤ 100 nM
CCCc1cc(C(=O)N[C@H](Cc2ccccc2Cl)[C@@H](O)C(=O)O)nn1Cc1ccc(-c2ccccc2-c2nnn[nH]2)nc1 [Example 14-5, (2R,3R)-4-(2-Chlorophenyl)-2-hydroxy-3-[(5-propyl-1-{6-[2-(1H-tetrazol-5-yl)phenyl]pyridin-3-ylmethyl}-1H-pyrazole-3-carbonyl)amino]butyric acid]	≤ 10 nM	≤ 100 nM
CCCc1cc(C(=O)N[C@@H](CC(=O)O)Cc2ccccc2)nn1Cc1ccc(-c2ccccc2-c2nnn[nH]2)nc1 [Example 14-6, (R)-4-Phenyl-3-[(5-propyl-1-{6-[2-(1H-tetrazol-5-yl)-phenyl]-pyridin-3-ylmethyl}-1H-pyrazole-3-carbonyl)amino]butyric acid]	≤ 10 nM	≤ 100 nM
CCCc1cc(C(=O)N[C@@H](CC(=O)O)CC(C)C)nn1Cc1ccc(-c2ccccc2-c2nnn[nH]2)nc1 [Example 14-7, (R)-5-Methyl-3-[(5-propyl-1-{6-[2-(1H-tetrazol-5-yl)-phenyl]-pyridin-3-ylmethyl}-1H-pyrazole-3-carbonyl)-amino]hexanoic acid]	≤ 10 nM	≤ 100 nM
CCCc1cc(C(=O)N[C@H](CC(C)C)[C@@H](O)C(=O)O)nn1Cc1ccc(-c2ccccc2-c2nnn[nH]2)nc1 [Example 14-8, (2R,3R)-2-Hydroxy-5-methyl-3-[(5-propyl-1-{6-[2-(1H-tetrazol-5-yl)phenyl]pyridin-3-ylmethyl}-1H-pyrazole-3-carbonyl)amino]hexanoic acid]	≤ 10 nM	≤ 1000 nM
CCCc1cc(C(=O)N[C@H](Cc2ccccc2)[C@H](O)C(=O)O)nn1Cc1ccc(-c2ccccc2-c2nnn[nH]2)nc1 [Example 14-9, (2S,3R)-2-Hydroxy-4-phenyl-3-[(5-propyl-1-{6-[2-(1H-tetrazol-5-yl)phenyl]pyridin-3-ylmethyl}-1H-pyrazole-3-carbonyl)amino]butyric acid]	≤ 10 nM	≤ 100 nM
CCCc1cc(C(=O)N[C@@H](CC(=O)O)Cc2ccsc2)nn1Cc1ccc(-c2ccccc2-c2nnn[nH]2)nc1 [Example 14-10, (R)-3-[(5-Propyl-1-{6-[2-(1H-tetrazol-5-yl)-phenyl]-pyridin-3-ylmethyl}-1H-pyrazole-3-carbonyl)-amino]-4-thiophen-3-yl-butyric acid]	≤ 10 nM	≤ 100 nM
CCCc1cc(C(=O)N[C@@H](CC(=O)O)Cc2ccco2)nn1Cc1ccc(-c2ccccc2-c2nnn[nH]2)nc1 [Example 14-11, (R)-4-Furan-2-yl-3-[(5-propyl-1-{6-[2-(1H-tetrazol-5-yl)phenyl]pyridin-3-ylmethyl}-1H-pyrazole-3-carbonyl)amino]butyric acid]	≤ 10 nM	≤ 1000 nM
CCCc1cc(C(=O)N[C@@H](CC(=O)O)Cc2cccc(F)c2)nn1Cc1ccc(-c2ccccc2-c2nnn[nH]2)nc1 [Example 14-12, (R)-4-(3-Fluorophenyl)-3-[(5-propyl-1-{6-[2-(1H-tetrazol-5-yl)phenyl]pyridin-3-ylmethyl}-1H-pyrazole-3-carbonyl)amino]butyric acid]	≤ 10 nM	≤ 100 nM
CCCc1cc(C(=O)N[C@@H](CC(=O)O)Cc2ccc(F)cc2)nn1Cc1ccc(-c2ccccc2-c2nnn[nH]2)nc1 [Example 14-13, (R)-4-(4-Fluorophenyl)-3-[(5-propyl-1-{6-[2-(1H-tetrazol-5-yl)phenyl]pyridin-3-ylmethyl}-1H-pyrazole-3-carbonyl)amino]butyric acid]	≤ 10 nM	≤ 100 nM
CCCc1cc(C(=O)N[C@@H](CC(=O)O)Cc2ccccc2Cl)nn1Cc1ccc(-c2ccccc2S(=O)(=O)NC(C)=O)nc1 [Example 14-14, (R)-3-({1-[6-(2-Acetylsulfamoylphenyl)-pyridin-3-ylmethyl]-5-propyl-1H-pyrazole-3-carbonyl}-amino)-4-(2-chlorophenyl)butyric acid]	≤ 10 nM	≤ 1000 nM
CCCc1cc(C(=O)N[C@@H](CC(=O)O)Cc2ccccc2)nn1Cc1ccc(-c2ccccc2S(=O)(=O)NC(C)=O)nc1 [Example 14-15, (R)-3-({1-[6-(2-Acetylsulfamoylphenyl)-pyridin-3-ylmethyl]-5-propyl-1H-pyrazole-3-carbonyl}-amino)-4-phenylbutyric acid]	≤ 10 nM	≤ 1000 nM
CCCc1cc(C(=O)N[C@H](Cc2ccccc2)[C@@H](O)C(=O)O)nn1Cc1ccc(-c2ccccc2-c2nnn[nH]2)cn1 [Example 15-1, (2R,3R)-2-Hydroxy-4-phenyl-3-[(5-propyl-1-{5-[2-(1H-tetrazol-5-yl)phenyl]pyridin-2-ylmethyl}-1H-pyrazole-3-carbonyl)amino]butyric acid]	≤ 10 nM	≤ 1000 nM
CCCc1cc(C(=O)N[C@@H](CC(=O)O)Cc2ccccc2Cl)nn1Cc1ccc(-c2ccccc2-c2nnn[nH]2)cn1 [Example 15-2, (R)-4-(2-Chlorophenyl)-3-[(5-propyl-1-{5-[2-(1H-tetrazol-5-yl)phenyl]pyridin-2-ylmethyl}-1H-pyrazole-3-carbonyl)amino]butyric acid]	≤ 100 nM	≤ 1000 nM
CCCc1cc(C(=O)N[C@H](Cc2ccccc2)[C@@H](O)C(=O)O)nn1Cc1ccc(-c2ccccc2S(=O)(=O)NC(C)=O)cn1 [Example 15-3, (2R,3R)-3-({1-[5-(2-Acetylsulfamoylphenyl)pyridin-2-ylmethyl]-5-propyl-1H-pyrazole-3-carbonyl}amino)-2-hydroxy-4-phenylbutyric acid]	≤ 100 nM	≤ 100 nM
CCCc1cc(C(=O)N[C@@H](CC(=O)O)Cc2ccccc2Cl)nn1Cc1ccc(-c2ccccc2S(=O)(=O)NC(C)=O)cn1 [Example 15-4, (R)-3-({1-[5-(2-Acetylsulfamoylphenyl)pyridin-2-ylmethyl]-5-propyl-1H-pyrazole-3-carbonyl}amino)-4-(2-chlorophenyl)butyric acid]	≤ 100 nM	≤ 1000 nM
CCCc1cc(C(=O)N[C@@H](CS)Cc2ccccc2)nn1Cc1ccc(-c2ccccc2-c2nc(=O)o[nH]2)cc1 [Example 16-1, 1-[2′-(5-Oxo-2,5-dihydro-[1,2,4]oxadiazol-3-yl)biphenyl-4-ylmethyl]-5-propyl-1H-pyrazole-3-carboxylic acid ((R)-1-benzyl-2-mercaptoethyl)amide]	≤ 10 nM	≤ 100 nM
